Measurements from patent publication US6472348B1, “Pyridone derivatives and herbicides” (Kumiai Chemical Industry Co., Ltd., priority 1996, dated 2002).

Legend:
Assay type in all cases: in vivo
[1] = test system: Digitaria ciliaris (Di); assay: Test Example 2: herbicidal effects by upland field soil treatment; conditions: 100 g of the active ingredient per 10 ares;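 also: grade of growth control; 5 = at least 90%; 4 = 70 to 90%; 3 = 50 to 70%; 2 = 30 to 50%; 1 = 10 to 30%; 0 = under 10%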
Text: (§1) (Test on Herbicidal Effects by Upland Field Soil Treatment)

[2] = test system: barnyardgrass (Ec); assay: as above; conditions: 100 g of the active ingredient per 10 ares;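 also: grade of growth control; 5 = at least 90%; 4 = 70 to 90%; 3 = 50 to 70%; 2 = 30 to 50%; 1 = 10 to 30%; 0 = under 10%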
Text: as §1

[3] = test system: common lambsquarters (Ch); assay: as above; conditions: 100 g of the active ingredient per 10 ares
Text: as §1

[4] = test system: pale smartweed (Po); assay: as above; conditions: 100 g of the active ingredient per 10 ares;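 also: grade of growth control; 5 = at least 90%; 4 = 70 to 90%; 3 = 50 to 70%; 2 = 30 to 50%; 1 = 10 to 30%; 0 = under 10%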
Text: as §1

[5] = test system: rice flatsedge (Ci); assay: as above; conditions: 100 g of the active ingredient per 10 ares;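 also: grade of growth control; 5 = at least 90%; 4 = 70 to 90%; 3 = 50 to 70%; 2 = 30 to 50%; 1 = 10 to 30%; 0 = under 10%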
Text: as §1

[6] = test system: slender amaranth (Am); assay: as above; conditions: 100 g of the active ingredient per 10 ares
Text: as §1

[7] = test system: China jute (Ab); assay: Test Example 6: crop plant selectivity by upland field soil treatment (soybean), herbicidal effects; set-up: scale not given here; conditions: 21st day after application
In short: (§2)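 Soybean and weeds sown in sand-filled pots and covered with soil, then treated by soil application. Plants grown in a greenhouse, with herbicidal effect and crop phytotoxicity scored on day 21 after application against a fixed rating scale.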

[8] = test system: common lambsquarters (Ch); assay: as above; set-up: scale not given here; conditions: 21st day after application
In short: as §2

[9] = test system: green foxtail (Se); assay: as above; set-up: scale not given here; conditions: 21st day after application
In short: as §2

[10] = test system: slender amaranth (Am); assay: as above; set-up: scale not given here; conditions: 21st day after application
In short: as §2

[11] = evaluated on the 21st day after application
[12] = 21st day after the application, index 0-5 of Table 47

Row | SMILES | Herbicidal effects Di [1, 11] | Herbicidal effects Ec [2, 11] | Herbicidal effects Ch [3, 11] | Herbicidal effects Po [4, 11] | Herbicidal effects Ci [5, 11] | Herbicidal effects Am [6, 11] | Herbicidal effects Ab ([7]; dose 1.6 g ai/10a) | Herbicidal effects Ch ([8]; dose 1.6 g ai/10a) | Herbicidal effects Se ([9]; dose 1.6 g ai/10a) | Herbicidal effects Am ([10]; dose 1.6 g ai/10a) | Herbicidal effects Di [1, 12] | Herbicidal effects Ec [2, 12] | Herbicidal effects Ch [3, 12] | Herbicidal effects Po [4, 12] | Herbicidal effects Ci [5, 12] | Herbicidal effects Am [6, 12] | Herbicidal effects Ab ([7]; dose 6.3 g ai/10a) | Herbicidal effects Ch ([8]; dose 6.3 g ai/10a) | Herbicidal effects Se ([9]; dose 6.3 g ai/10a) | Herbicidal effects Am ([10]; dose 6.3 g ai/10a)
1 | C#CC(C)Oc1cc(-c2cn(C)c(C(F)(F)F)cc2=O)c(F)cc1Cl (racemic) [Compound 6-10] | 5 | 5 | 5 | 5 | 5 | 5 | 4 | 5 | 4 | 5 | – | – | – | – | – | – | – | – | – | –
2 | COc1cc(-c2ccc(C(F)(F)F)n(C)c2=O)c(F)cc1Cl [1-15] | – | – | – | – | – | – | 5 | 5 | 5 | 5 | 5 | 5 | 5 | 5 | 5 | 5 | – | – | – | –
3 | C=CCOc1cc(-c2ccc(C(F)(F)F)n(C)c2=O)c(F)cc1Cl [1-16] | – | – | – | – | – | – | 5 | 5 | 5 | 5 | 5 | 5 | 5 | 5 | 5 | 5 | – | – | – | –
4 | C#CC(C)Oc1cc(-c2ccc(C(F)(F)F)n(C)c2=O)c(F)cc1Cl (centres unmarked) [1-17] | – | – | – | – | – | – | 5 | 5 | 5 | 5 | 5 | 5 | 5 | 5 | 5 | 5 | – | – | – | –
5 | C#CCOc1cc(-c2ccc(C(F)(F)F)n(C)c2=O)c(F)cc1Cl [1-18] | – | – | – | – | – | – | 5 | 5 | 5 | 5 | 5 | 5 | 5 | 5 | 5 | 5 | – | – | – | –
6 | Cn1c(C(F)(F)F)ccc(-c2cc(OCC#N)c(Cl)cc2F)c1=O [1-25] | – | – | – | – | – | – | – | – | – | – | 5 | 5 | 5 | 5 | 5 | 5 | 5 | 5 | 5 | 5
7 | C#CCOc1cc(-c2ccc(C(F)(F)F)n(C)c2=O)c(Cl)cc1Cl [1-30] | – | – | – | – | – | – | 5 | 5 | 5 | 5 | 5 | 5 | 5 | 5 | 5 | 5 | – | – | – | –
8 | CC(C)Sc1cc(-c2ccc(C(F)(F)F)n(C)c2=O)c(F)cc1Cl [1-43] | – | – | – | – | – | – | – | – | – | – | 5 | 5 | 5 | 5 | 5 | 5 | 4 | 5 | 5 | 5
9 | C#CCSc1cc(-c2ccc(C(F)(F)F)n(C)c2=O)c(F)cc1Cl [1-44] | – | – | – | – | – | – | – | – | – | – | 5 | 5 | 5 | 5 | 5 | 5 | 5 | 5 | 5 | 5
10 | CCOC(=O)c1cc(-c2ccc(C(F)(F)F)n(C)c2=O)c(F)cc1Cl [1-65] | – | – | – | – | – | – | 5 | 5 | 5 | 5 | 5 | 5 | 5 | 5 | 5 | 5 | 5 | 5 | 5 | 5
11 | Cc1cc(-c2ccc(C(F)(F)F)n(C)c2=O)c(F)cc1Cl [1-90] | – | – | – | – | – | – | 5 | 5 | 5 | 5 | 5 | 5 | 5 | 5 | 5 | 5 | 5 | 5 | 5 | 5
12 | COCSc1cc(-c2ccc(C(F)(F)F)n(C)c2=O)c(F)cc1Cl [1-91] | – | – | – | – | – | – | 5 | 5 | 5 | 5 | 5 | 5 | 5 | 5 | 5 | 5 | 5 | 5 | 5 | 5
13 | Cn1c(C(F)(F)F)ccc(-c2cc(Cl)c(Cl)cc2F)c1=O [1-136] | – | – | – | – | – | – | 4 | 5 | 5 | 5 | 5 | 5 | 5 | 5 | 5 | 5 | 5 | 5 | 5 | 5
14 | Cn1c(C(F)(F)F)ccc(-c2cc(OCC(F)(F)F)c(Cl)cc2F)c1=O [1-155] | – | – | – | – | – | – | 5 | 5 | 5 | 5 | 5 | 5 | 5 | 5 | 5 | 5 | 5 | 5 | 5 | 5
15 | Cn1c(C(F)(F)F)ccc(-c2cc(OCC3CC3)c(Cl)cc2F)c1=O [1-160] | – | – | – | – | – | – | – | – | – | – | 5 | 5 | 5 | 5 | 5 | 5 | 5 | 5 | 5 | 5
16 | Cn1c(C(F)(F)F)ccc(-c2cc(OCCCl)c(Cl)cc2F)c1=O [1-171] | 5 | 5 | 5 | 5 | 5 | 5 | – | – | – | – | – | – | – | – | – | – | 5 | 5 | 5 | 5
17 | C#CCOc1cc(-c2ccc(C(F)(F)F)n(N)c2=O)c(F)cc1Cl [1-178] | 5 | 5 | 5 | 5 | 5 | 5 | – | – | – | – | – | – | – | – | – | – | – | – | – | –
18 | COc1cc(-c2ccc(C(F)(F)F)n(N)c2=O)c(F)cc1Cl [1-179] | 5 | 5 | 5 | 5 | 5 | 5 | – | – | – | – | – | – | – | – | – | – | – | – | – | –
19 | CCOCOc1cc(-c2ccc(C(F)(F)F)n(C)c2=O)c(F)cc1Cl [1-181] | 5 | 5 | 5 | 5 | 5 | 5 | – | – | – | – | – | – | – | – | – | – | 5 | 5 | 5 | 5
20 | C#CC(C)Oc1cc(Cl)cc(F)c1-c1ccc(C(F)(F)F)n(C)c1=O (centres unmarked) [1′-5] | 5 | 5 | 5 | 5 | 5 | 5 | 5 | 5 | 4 | 5 | – | – | – | – | – | – | 5 | 5 | 5 | 5
21 | C=CC(C)Oc1cc(-c2ccc(C(F)(F)F)n(C)c2=O)c(F)cc1Cl (centres unmarked) [Compound 1-182] | 5 | 5 | 5 | 5 | 5 | 5 | – | – | – | – | – | – | – | – | – | – | 5 | 5 | 5 | 5
22 | CCON=Cc1cc(-c2ccc(C(F)(F)F)n(C)c2=O)c(F)cc1Cl [Compound 1-187] | 5 | 5 | 5 | 5 | 5 | 5 | – | – | – | – | – | – | – | – | – | – | 5 | 5 | 5 | 5
23 | CCOC(=O)CON=Cc1cc(-c2ccc(C(F)(F)F)n(C)c2=O)c(F)cc1Cl [Compound 1-191] | 5 | 5 | 5 | 5 | 5 | 5 | – | – | – | – | – | – | – | – | – | – | 5 | 5 | 5 | 5
24 | C=CC(O)c1cc(-c2ccc(C(F)(F)F)n(C)c2=O)c(F)cc1Cl (centres unmarked) [Compound 1-197] | 5 | 5 | 5 | 5 | 5 | 5 | – | – | – | – | – | – | – | – | – | – | 5 | 5 | 5 | 5
25 | C#CC(O)c1cc(-c2ccc(C(F)(F)F)n(C)c2=O)c(F)cc1Cl (centres unmarked) [Compound 1-202] | 5 | 5 | 5 | 5 | 5 | 5 | 5 | 5 | 5 | 5 | – | – | – | – | – | – | – | – | – | –
26 | C#CCN1C(=O)COc2cc(F)c(-c3cn(C)c(C(F)(F)F)cc3=O)cc21 [Compound 7-1] | 5 | 5 | 5 | 5 | 5 | 5 | – | – | – | – | – | – | – | – | – | – | 5 | 5 | 5 | –
27 | Cc1cc2c(-c3cn(C)c(C(F)(F)F)cc3=O)c(F)cc(Cl)c2o1 [Compound No. 9-1, 5-(7-chloro-5-fluoro-2-methylbenzofuran-4-yl)-1-methyl-2-trifluoromethyl-4(1H)-pyridone] | 5 | 5 | 5 | 5 | 5 | 5 | – | – | – | – | – | – | – | – | – | – | – | – | – | –
